According to patent US20100168079A1 (priority 2008, published 2010):

Molecular target: T1, human S1P1 receptors (Homo sapiens, UniProt P21453)
T1 construct: myc (N); expressed in transfected cells; host or cells: HeLa (human cervix carcinoma, ATCC CCL2), HeLa-S1P1/Gα16 cell clone 1
Assay: Human S1P1 Receptor Calcium FLIPR Antagonist Assay (HeLa Gα16 S1P1)
Assay type: cell-based
Conditions: relative antagonism of Ca2+ signal evoked by probing agonist GNF-AC-1 at EC80; HeLa-S1P1/Gα16 cells
Procedure: Human S1P1 Receptor Calcium FLIPR Antagonist Assay
The cells are plated in 384 well black plates (10′000 cells per well). […] After washing, the cells are transferred to the FLIPR. The test compounds are added at different concentrations […]) in HBSS in the presence of 0.1% BSA and changes in fluorescence are recorded (indication of agonism). The probing agonist is added 20-30 minutes afterwards to the wells at a concentration giving 80% of the maximal activity (EC80). After each addition, time points are collected as follows: 20 time points (2 seconds) before the addition of the agonist (Fmin) and 60 time points (1 or 2 seconds) after the addition of the probing agonist. This allows the determination of the maximal fluorescence (Fmax). The ratio (Fmax-Fmin)/Fmin is plotted against the log of the concentration of the test compounds and the IC50 (relative antagonism) is calculated using the XLfit-4 software. […] A concentration-response curve of the probing agonist is determined on each plate in parallel.

T1 sequence (P21453 whole entry): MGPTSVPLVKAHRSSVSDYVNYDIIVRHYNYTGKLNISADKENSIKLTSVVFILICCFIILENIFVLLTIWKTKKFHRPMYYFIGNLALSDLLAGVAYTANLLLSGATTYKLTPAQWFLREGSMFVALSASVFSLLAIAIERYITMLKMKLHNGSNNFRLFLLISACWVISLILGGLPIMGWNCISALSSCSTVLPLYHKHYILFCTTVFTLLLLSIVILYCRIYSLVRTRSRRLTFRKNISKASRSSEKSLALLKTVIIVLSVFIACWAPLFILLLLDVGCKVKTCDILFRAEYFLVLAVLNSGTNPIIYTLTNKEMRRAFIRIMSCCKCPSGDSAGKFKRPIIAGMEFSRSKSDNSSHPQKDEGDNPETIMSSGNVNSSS

SMILES | IC50 [nM]
COc1ccc(C(C)Nc2cccc(-c3cc(C)c(C(=O)N[C@@H](C)C(=O)O)c(C)c3)c2)cc1Cl (stereo partly drawn) [Example 1, (S)-2-({3′-[1-(3-Chloro-4-methoxy-phenyl)-ethylamino]-3,5-dimethyl-biphenyl-4-carbonyl}-amino)-propionic acid] | 2
CCC(Nc1cccc(-c2cc(C)c(C(=O)N[C@@H](C)C(=O)O)c(C)c2)c1)c1ccc(Cl)c(C)c1 (stereo partly drawn) [Example 5, (S)-2-({3′-[1-(4-Chloro-3-methyl-phenyl)-propylamino]-3,5-dimethyl-biphenyl-4-carbonyl}-amino)-propionic acid] | 2
Cc1ccc(C(C)Nc2cccc(-c3cc(C)c(C(=O)N[C@@H](C)C(=O)O)c(C)c3)c2)cc1C (stereo partly drawn) [Example 11, (S)-2-({3′-[1-(3,4-Dimethylphenyl)-ethylamino]-3,5-dimethyl-biphenyl-4-carbonyl}-amino)-propionic acid] | 4
Cc1cc(C(C)Nc2cccc(-c3cc(C)c(C(=O)N[C@@H](C)C(=O)O)c(C)c3)c2)c(C)cc1Cl (stereo partly drawn) [Example 13, (S)-2-({3′-[1-(4-Chloro-2,5-dimethyl-phenyl)-ethylamino]-3,5-dimethyl-biphenyl-4-carbonyl}-amino)-propionic acid] | 5
COc1cc(C(C)Nc2cccc(-c3cc(C)c(C(=O)N[C@@H](C)C(=O)O)c(C)c3)c2)ccc1F (stereo partly drawn) [Example 15, (S)-2-({3′-[1-(4-Fluoro-3-methoxy-phenyl)-ethylamino]-3,5-dimethyl-biphenyl-4-carbonyl}-amino)-propionic acid] | 2
COc1ccc(C(C)Nc2cccc(-c3cc(C)c(C(=O)N[C@@H](C)C(=O)O)c(C)c3)c2)cc1F (stereo partly drawn) [Example 18, (S)-2-({3′-[1-(3-Fluoro-4-methoxy-phenyl)-ethylamino]-3,5-dimethyl-biphenyl-4-carbonyl}-amino)-propionic acid] | 4
Cc1cc(F)cc(C(C)Nc2cccc(-c3cc(C)c(C(=O)N[C@@H](C)C(=O)O)c(C)c3)c2)c1 (stereo partly drawn) [Example 19, (S)-2-({3′-[1-(3-Fluoro-5-methyl-phenyl)-ethylamino]-3,5-dimethyl-biphenyl-4-carbonyl}-amino)-propionic acid] | 2
Cc1cc(C(C)Nc2cccc(-c3cc(C)c(C(=O)N[C@@H](CO)C(=O)O)c(C)c3)c2)ccc1Cl (stereo partly drawn) [Example 21, (S)-2-({3′-[1-(4-Chloro-3-methyl-phenyl)-ethylamino]-3,5-dimethyl-biphenyl-4-carbonyl}-amino)-3-hydroxy-propionic acid] | 2

The remaining compounds from weak to strong by IC50, led by results:

IC50 [nM] | SMILES
5 | Cc1cc(-c2cccc(NC(C)c3ccc(F)c(OC(F)(F)F)c3)c2)cc(C)c1C(=O)N[C@@H](C)C(=O)O (stereo partly drawn) [Example 17, (S)-2-({3′-[1-(4-Fluoro-3-trifluoromethoxy-phenyl)-ethylamino]-3,5-dimethyl-biphenyl-4-carbonyl}-amino)-propionic acid]
4 | Cc1cc(-c2cccc(NC(C)c3ccc(Cl)c(C(F)(F)F)c3)c2)cc(C)c1C(=O)N[C@@H](C)C(=O)O (some centres unmarked) [Example 14]
3 | Cc1cc(-c2cccc(NC(C)c3ccc(Cl)c(F)c3)c2)cc(C)c1C(=O)N[C@@H](C)C(=O)O (stereo partly drawn) [Example 9, (S)-2-({3′-[1-(4-Chloro-3-fluoro-phenyl)-ethylamino]-3,5-dimethyl-biphenyl-4-carbonyl}-amino)-propionic acid]
2 | Cc1cc(-c2cccc(NC(C)c3ccc(Cl)c(Cl)c3)c2)cc(C)c1C(=O)N[C@@H](C)C(=O)O (some centres unmarked) [Example 10]
2 | Cc1cc(C(C)Nc2cccc(-c3cc(C)c(C(=O)N[C@@H](C)C(=O)O)c(C)c3)c2)c(F)cc1Cl (stereo partly drawn) [Example 16, (S)-2-({3′-[1-(4-Chloro-2-fluoro-5-methyl-phenyl)-ethylamino]-3,5-dimethyl-biphenyl-4-carbonyl}-amino)-propionic acid]
2 | CCC(Nc1cccc(-c2cc(C)c(C(=O)NC3(C(=O)O)CC3)c(C)c2)c1)c1ccc(Cl)c(C)c1 (centres unmarked) [Example 27, 1-({3′-[1-(4-Chloro-3-methyl-phenyl)-propylamino]-3,5-dimethyl-biphenyl-4-carbonyl}-amino)-cyclopropanecarboxylic acid]
